Source: patent US6806275B2, “Arylpiperidine derivatives and use thereof” (Nihon Nohyaku Co., Ltd., priority 1998, dated 2004)

Tests used:
[1] = target: T1, Dopamine D2 receptor (rat striatum membrane) (Rattus norvegicus, UniProt P61169); experiment: Dopamine D2 receptor binding assay ([3H]raclopride); conditions: [3H]raclopride 1 nM, 25° C., 1 hour
T1 construct: Rat striatum was homogenized in 50 mM Tris-hydrochloric acid buffer (pH 7.4); from tissue; host or cells: rat striatum
Experimental: 2. Dopamine D2 Receptor Binding Assay
Rat striatum membrane was used as a receptor preparation.
[^3H] raclopride was used as a [^3H]-labeled ligand.
Preparation of the receptor preparation: Rat striatum was homogenized in 50 mM Tris-hydrochloric acid buffer (pH 7.4), and the homogenate was centrifuged at 48,000×g and the pellet was washed once with Tris-hydrochloric acid buffer. The washed pellet was suspended in 50 mM Tris-hydrochloric acid buffer (pH 7.4) containing 120 mM sodium chloride, 5 mM potassium chloride, 2 mM calcium chloride and 1 mM magnesium chloride, to obtain a membrane preparation.
Dopamine D2 receptor binding assay: The membrane preparation (0.5 mg protein/ml), [^3H] raclopride (1 nM) and each test drug were incubated at 25° C. for 1 hour.
(§1) After completion of the reaction, the reaction mixture was filtered by suction through a glass filter (GF/B), and radioactivity in the filter paper was measured with a liquid scintillation spectrometer.
Binding under the reaction of [^3H] raclopride carried out in the presence of 10 μM haloperidol was defined as nonspecific binding of [^3H] lacropirido, and the difference between the total binding and the nonspecific binding was defined as specific binding.

human D4.2 receptor = target: T2, human D4.2 receptor (Homo sapiens, UniProt P21917, DEL265-296); experiment: Dopamine D4 receptor binding assay ([3H]spiperone); conditions: CHO cell membrane expressing human D4.2 receptor; [3H]spiperone 0.5 nM; 27° C., 2 hours
T2 construct: expressed in transfected cells; host or cells: CHO cells (membrane preparation)
T2 sequence (P21917 with tags, fused parts or gaps DEL265-296): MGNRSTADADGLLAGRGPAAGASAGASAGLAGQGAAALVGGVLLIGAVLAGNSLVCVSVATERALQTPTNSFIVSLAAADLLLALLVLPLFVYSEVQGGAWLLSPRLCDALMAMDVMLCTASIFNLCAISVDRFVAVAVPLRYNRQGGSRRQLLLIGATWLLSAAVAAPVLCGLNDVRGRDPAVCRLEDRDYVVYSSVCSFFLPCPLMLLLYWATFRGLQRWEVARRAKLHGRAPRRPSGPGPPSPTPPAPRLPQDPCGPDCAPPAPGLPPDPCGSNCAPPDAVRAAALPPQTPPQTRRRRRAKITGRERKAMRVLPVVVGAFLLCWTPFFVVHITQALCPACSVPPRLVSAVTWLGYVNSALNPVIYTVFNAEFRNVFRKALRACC
Experimental: 1. Dopamine D4 Receptor Binding Assay
Chinese hamster ovarium (CHO) cell membrane wherein human D4.2 receptor was expressed was used as a receptor preparation.
[^3H] spiperone was used as a [^3H]-labeled ligand.
Human D4.2 receptor binding assay: The (CHO) cell membrane wherein human D4.2 receptor was expressed, [^3H] spiperone (0.5 nM) and each test drug were incubated at 27° C. for 2 hours in 50 mM Tris-hydrochloric acid buffer (pH 7.4) containing 5 mM EDTA, 1.5 mM calcium chloride, 5 mM potassium chloride and 120 mM sodium chloride.
as §1
Binding under the reaction of [^3H] spiperone carried out in the presence of 10 μM haloperidol was defined as nonspecific binding of [^3H] spiperone, and the difference between the total binding and the nonspecific binding was defined as specific binding.

T1 sequence (P61169 whole entry): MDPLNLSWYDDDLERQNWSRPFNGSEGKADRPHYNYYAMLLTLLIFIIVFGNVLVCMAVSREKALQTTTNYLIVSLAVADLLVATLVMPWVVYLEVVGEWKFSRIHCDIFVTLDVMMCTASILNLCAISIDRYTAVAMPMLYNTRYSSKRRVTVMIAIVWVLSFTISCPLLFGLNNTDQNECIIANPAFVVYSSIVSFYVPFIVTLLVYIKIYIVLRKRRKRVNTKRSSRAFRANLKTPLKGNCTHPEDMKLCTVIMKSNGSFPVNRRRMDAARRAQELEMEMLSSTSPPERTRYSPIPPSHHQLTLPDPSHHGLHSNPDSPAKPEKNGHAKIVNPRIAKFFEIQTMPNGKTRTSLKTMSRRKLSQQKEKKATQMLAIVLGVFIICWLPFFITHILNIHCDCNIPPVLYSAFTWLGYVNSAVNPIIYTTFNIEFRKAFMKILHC

Row | SMILES | IC50 [1] [nM] | IC50 (human D4.2 receptor) [nM] | melting point [°C]
1 | Nc1nc(-c2ccc(F)cc2)c(CCN2CCC(c3coc4cc(F)ccc34)CC2)s1 [B-01, 2-amino-4-(4-fluorophenyl)-5-[2-[4-(6-fluorobenzofuran-3-yl)piperidin-1-yl]ethyl]thiazole] | 67.3 | 3.1 | 
2 | Oc1nc(-c2ccc(F)cc2)c(CCN2CCC(c3coc4cc(F)ccc34)CC2)s1 [B-06, 2-hydroxy-4-(4-fluorophenyl)-5-[2-[4-(6-fluorobenzofuran-3-yl)piperidin-1-yl]ethyl]thiazole] |  |  | 186 to 188
3 | Nc1nc(-c2ccc(F)cc2)c(CCN2CCC(c3c[nH]c4ccccc34)CC2)s1 [B-09] | 81.1 | 2 | 203 to 203.5
4 | Cc1nc(-c2ccc(F)cc2)c(CCN2CCC(c3c[nH]c4ccccc34)CC2)s1 [B-11] | 26.6 | 0.4 | 165 to 167
5 | Fc1ccc(-c2[nH]ncc2CCN2CCC(c3csc4cc(F)ccc34)CC2)cc1 [Example 10, 5-(4-fluorophenyl)-4-[2-[4-(6-fluorobenzo[b]thiophen-3-yl)piperidin-1-yl]ethyl]pyrazole] |  |  | 162 to 163
6 | Fc1ccc(-c2ncncc2CCN2CCC(c3csc4cc(F)ccc34)CC2)cc1 [Example 11, 6-(4-fluorophenyl)-5-[2-[4-(6-fluorobenzo[b]thiophen-3-yl)piperidin-1-yl]ethyl]pyrimidine] |  |  | 123 to 124

Further lines, results first:

Row | IC50 [1] [nM] | IC50 (human D4.2 receptor) [nM] | melting point [°C] | SMILES
7 | > 1000 | 32 | 282 to 284 | Nc1nc(-c2ccc(F)cc2)c(CCN2CCC(n3cnc4cc(F)ccc43)CC2)s1 [B-25]
8 | 298 | 5.5 |  | Nc1nc(-c2ccc(F)cc2)c(CCN2CCC(n3nnc4cc(F)ccc43)CC2)s1 [B-26, 2-amino-4-(4-fluorophenyl)-5-[2-[4-(5-fluoro-1H-benzotriazol-1-yl)piperidin-1-yl]ethyl]thiazole]
9 | 206 | 2.4 | 145 to 146 | Cc1nc(-c2ccc(F)cc2)c(CCN2CCC(n3nnc4cc(F)ccc43)CC2)s1 [B-29]
10 |  |  | 223 to 224 | CSc1nc(-c2ccc(F)cc2)c(CCN2CCC(n3nnc4cc(F)ccc43)CC2)[nH]1 [C-03, 2-methylthio-4-(4-fluorophenyl)-5-[2-[4-(5-fluoro-1H-benzotriazol-1-yl)piperidin-1-yl]ethyl]imidazole]
